This is an account of results in article PMC11990615 (Molecules, 2025).

Several values for one entry are separate records, joined by “and”; a condition that tells them apart may be missing. Equal entries are not always repeated.

For series [1], the system named is Colletotrichum gloeosporioides. In words: Fungicidal activity, mycelial growth inhibition on PDA plates. To be noted: for Inhibition rate: at a concentration of 26.5 μmol/L; for IC50: mycelial growth, 96 h dark incubation at 26 °C; for inhibition at 26.5 µM: read-out: Inhibition rate.
Experimental: Pure water was used as a negative control. Mycelial plugs with a diameter of 5 mm were positioned in the middle of PDA plates that held various sample concentrations. Every treatment was carried out three times. […] The formula used to compute the suppression of mycelial growth was inhibition (%) = (Dc − Dt)/(Dc − 5) × 100%, where Dc and Dt are the diameters in millimeters of the treatment colony and the control colony, respectively. […] The tests, in turn, constructed t-statistics and determined the signifi-cance of differences between groups.
A short description of series [2]: Interfacial surface tension, Wilhelmy plate method. The class given is physicochemical. To be noted: saturated aqueous solution, 25 °C; no unit printed with the values (method: mN/m). As to the method: Pure water’s surface tension was used to calibrate the device. After cleaning and drying, the sensing platinum plate was slowly oriented perpendicular to the solution interface. The plate will stop when the liquid surface tension and other relevant forces reach a balance. The interfacial surface tension values of the test chemicals were noted. Each compound was determined with three parallel samples.

The nature of series [3]: Photostability under UV irradiation (photolysis kinetics). Type of series: physicochemical. To be noted: aqueous solution 26.6 μmol/L, 15 W UV lamp 254 nm, 25 °C; for half-life at 26.6 μmol/L: read-out: t1/2, photolysis half-life (converted). As to the method: Photostability evaluation. […] At different time intervals (0, 0.5, 1, 1.5, 2, 3, 4, and 6 h), 100 μL of the solutions was accurately removed from the vials, diluted tenfold with methanol, and analyzed by HPLC-MS/MS. Instrument specifications are detailed in the Supporting Information.
As dark controls, aluminum foil-wrapped quartz tubes were used to prevent the impact of outside variables. […] The coefficient of determination r^2 was used to describe the goodness of fit of the curves. The half-lives t1/2 of the chemicals were calculated by the following formula:(2) t1/2=−ln(0.5)/K

Series [4] is described as follows: Octanol-water partition coefficient, shake-flask method. The class given is physicochemical. To be noted: n-octanol/water, 25 °C. As to the method:
Initially, a n-octanol solution containing 2000 mg/L of the compound was mixed with water in centrifuge tubes at 1:2, 1:1, and 2:1 volume ratios, with two parallel samples for each ratio. All tubes were shaken at a constant temperature of 25 °C for 3 h. Subsequently, the samples were centrifuged at 4000 rpm for 10 min. The octanol and aqueous phases were then carefully collected and diluted tenfold with methanol, and their concentrations were measured using HPLC-UV and HPLC-MS/MS, respectively. Instrument specifications are detailed in the Supporting Information.

Details of series [5]: method as in earlier work. To be noted: cited from earlier work.
For series [6] the following is noted: weak base; no reference given; cited from earlier work.
Series [7] deals with aquatic organisms. Further details: method as in earlier work. To be noted: cited from earlier work.
Setting [8] is: Colletotrichum gloeosporioides, 96 h.

In turn, `CC(=O)C(=O)[O-].[Na+]` [Sodium pyruvate] yielded an Inhibition rate in series [1] of 3.5 ± 0.2%.
What is called IC50 is the concentration that gives 50% inhibition. Lower therefore signals greater potency. In turn, `CCCCCCCCC=CCCCCCCCC(=O)O.CCCN(CCOc1c(Cl)cc(Cl)cc1Cl)C(=O)n1ccnc1` [[Pro][OleA]] registered an Interfacial surface tension in series [2] of 42.53. For the same compound, the “K, first-order photolysis rate constant” value in series [3] is 0.552 h⁻¹. The same compound returned an IC50 in series [1] of 1.33 µg/mL.
In series [1], `O=C([O-])c1ccccc1O.[Na+]` [Sodium Salicylate] came in with an Inhibition rate of 2.0 ± 2.7%.
For `CCCN(CCOc1c(Cl)cc(Cl)cc1Cl)C(=O)n1ccnc1.O=C(O)c1ccccc1` [[Pro][BenA]] [listing 1 of 2 here], the half-life at 26.6 μmol/L in series [3] was 0.9 h. The same compound showed a half-maximal inhibitory concentration (IC50) in series [1] (setting [8]) of 1.04 µg/mL.
For orientation: inhibition means the relative decrease from the control value, in per cent. Consider `O=C(O)c1ccccc1` [Benzoic acids, Benzoic acid], for which the inhibition at 26.5 µM in series [1] (Colletotrichum gloeosporioides) was 7.2 ± 1.2%.
As to `CCCN(CCOc1c(Cl)cc(Cl)cc1Cl)C(=O)n1ccnc1.O=C(O)c1ccccc1O` [[Pro][SalA]] [listing 1 of 2 here], the “K, first-order photolysis rate constant” value in series [3] came to 0.401 h⁻¹. This compound showed a half-maximal inhibitory concentration (IC50) in series [1] of 1940 nM.
For the compound `CCCCCCCC/C=C\CCCCCCCC(=O)O` [Oleic acids, Oleic acid], the inhibition at 26.5 µM in series [1] (Colletotrichum gloeosporioides) came to 3.4 ± 1.3%.
Turning to `CCCN(CCOc1c(Cl)cc(Cl)cc1Cl)C(=O)n1ccnc1` [[Pro][OleA]], the IC50 in series [1] was found to be 2020 nM.
On to `O=C(O)/C=C/c1ccccc1` [Cinnamic acids, Cinnamic acid], for which the inhibition at 26.5 µM in series [1] (Colletotrichum gloeosporioides) came to 7.5 ± 2.4%.
In series [1], `CC(=O)[O-].[Na+]` [Sodium acetate] returned an Inhibition rate of 5.9 ± 0.5%.
A word on the pKa: it is the negative logarithm of the acid dissociation constant. In series [4], `CCCN(CCOc1c(Cl)cc(Cl)cc1Cl)C(=O)n1ccnc1` [Prochloraz, N-propyl-N-(2,4,6-trichlorophenoxy)ethyl-imidazole-1-carboxamide] registered a logKow of 3.52. In addition, the Interfacial surface tension in series [2] was determined as 51.75. Further, in series [3], the “K, first-order photolysis rate constant” value was 0.641 h⁻¹ and the half-life at 26.6 μmol/L was 1.08 h. Besides, the “Photolysis half-life in water” value in series [5] is 36 h. Further, the pKa in series [6] is recorded as 3.8. Moreover, the “Concentrations at which embryonic mortality and developmental effects were observed” value in series [7] is 2400 ng/mL and 4800 ng/mL. Also, in series [1] (setting [8]), the 50% inhibitory concentration (IC50) is 1.39 µM and 0.52 µg/mL. Further, the inhibition at 26.5 µM in series [1] (Colletotrichum gloeosporioides) was 100 ± 0.1%.
`CC(O)C(=O)[O-].[Na+]` (stereo not shown) [Sodium lactate] gave an Inhibition rate in series [1] of 4.0 ± 0.4%.
In the case of `CC(=O)C(=O)O` [Pyruvic acids, Pyruvic acid], the inhibition at 26.5 µM in series [1] (Colletotrichum gloeosporioides) turned out to be 4.5 ± 0.4%.
Consider `O=C(O)c1ccccc1O` [Salicylic acids, Salicylic acid], for which the inhibition at 26.5 µM in series [1] (Colletotrichum gloeosporioides) was found to be 4.5 ± 0.3%.
For the compound `CCCCCCCC/C=C\CCCCCCCC(=O)[O-].[Na+]` [Sodium oleate], in series [1], the Inhibition rate worked out at 3.9 ± 2.6%.
Take `CCCN(CCOc1c(Cl)cc(Cl)cc1Cl)C(=O)n1ccnc1.O=C(O)c1ccccc1` [[Pro][BenA]] [listing 2 of 2 here]: the “K, first-order photolysis rate constant” value in series [3] was determined as 0.774 h⁻¹. The same compound had a concentration for half-maximal inhibition (IC50) in series [1] of 2090 nM.
The matching figures for `CC(O)C(=O)O.CCCN(CCOc1c(Cl)cc(Cl)cc1Cl)C(=O)n1ccnc1` [[Pro][LacA]] [listing 1 of 2 here]: 0.391 h⁻¹ and 1740 nM.
In the case of `CCCCCCCCC(=O)O.CCCN(CCOc1c(Cl)cc(Cl)cc1Cl)C(=O)n1ccnc1` [[Pro][NonA]], the Interfacial surface tension in series [2] worked out at 41.24. Moreover, in series [3], the “K, first-order photolysis rate constant” value turned out to be 0.438 h⁻¹ and the “t1/2, photolysis half-life” value was 1.58 h.
Consider `CC(=O)O.CCCN(CCOc1c(Cl)cc(Cl)cc1Cl)C(=O)n1ccnc1` [[Pro][AceA]] [listing 1 of 2 here], for which the half-life at 26.6 μmol/L in series [3] is 1.73 h. In series [1] (setting [8]), this compound came in with an IC50 of 0.53 µg/mL.
For `CCCN(CCOc1c(Cl)cc(Cl)cc1Cl)C(=O)n1ccnc1.O=C(O)/C=C/c1ccccc1` [[Pro][CinA]], the “K, first-order photolysis rate constant” value in series [3] was found to be 0.305 h⁻¹. Moreover, the 50% inhibitory concentration (IC50) in series [1] was 2 µM and 1.05 mg/L.
In the case of `CCCCCCCCC(=O)O` [Nonanoic acids, Nonanoic acid], the inhibition at 26.5 µM in series [1] (Colletotrichum gloeosporioides) was 1.8 ± 1.3%.
Still for that read-out and setting: next, `CC(O)C(=O)O` (stereo not shown) [Lactic acids, Lactic acid]: 6 ± 1%.
Regarding `CC(=O)C(=O)O.CCCN(CCOc1c(Cl)cc(Cl)cc1Cl)C(=O)n1ccnc1` [[Pro][PyrA]], in series [3], the “K, first-order photolysis rate constant” value was determined as 0.383 h⁻¹ and the “t1/2, photolysis half-life” value was 1.81 h.
For `CC(=O)O` [Acetic acids, Acetic acid], the Inhibition rate in series [1] amounted to 8.3 ± 2.3%.
The same measure, in the same setting: next, `O=C([O-])c1ccccc1.[Na+]` [Sodium benzoate]: 3.0 ± 1.1%.
Consider `CCCN(CCOc1c(Cl)cc(Cl)cc1Cl)C(=O)n1ccnc1.O=C(O)c1ccccc1O` [[Pro][SalA]] [listing 2 of 2 here], for which, in series [3], the half-life at 26.6 μmol/L is 1.73 h. The same compound showed an IC50 in series [1] (setting [8]) of 1 µg/mL.
The matching figures for `CC(O)C(=O)O.CCCN(CCOc1c(Cl)cc(Cl)cc1Cl)C(=O)n1ccnc1` [[Pro][LacA]] [listing 2 of 2 here]: 1.77 h and 0.81 µg/mL.
With `CCCCCCCCC(=O)[O-].[Na+]` [Sodium nonanoate], the Inhibition rate in series [1] came out at 2.9 ± 0.3%.
On to `O=C([O-])/C=C/c1ccccc1.[Na+]` [Sodium cinnamate], for which, in series [1], the Inhibition rate worked out at 2.8 ± 1.1%.
For the compound `CC(=O)O.CCCN(CCOc1c(Cl)cc(Cl)cc1Cl)C(=O)n1ccnc1` [[Pro][AceA]] [listing 2 of 2 here], the “K, first-order photolysis rate constant” value in series [3] is 0.400 h⁻¹. In series [1], this compound displayed a 50% inhibitory concentration (IC50) of 1220 nM.
